Values of other authors, collected in patent US20100086647A1, “FEED OR FOOD PRODUCTS COMPRISING FUNGAL MATERIAL” (MEDIMUSH AS, priority 2005, published 2010).

Experiments:
S. pyogenes = details: in vitro
B. megaterium = details: in vitro
S. staphylococcus = details: in vitro
E. coli = details: postulated
C. jejuni = details: postulated

## C1SSCSSS1 [Lenthionine]
S. pyogenes
  antibacterial effect: antibacterial
B. megaterium
  antibacterial effect: antibacterial
S. staphylococcus
  antibacterial effect: antibacterial
E. coli
  effect on microorganism: no effect
C. jejuni
  effect on microorganism: no effect

## Lentinan
Cytochrome P450s (CYPs)
  expression of cytochrome P450s (CYPs): can suppress the expression
